Laboratory results as given in patent publication US11382918B2, “Methods for treating Huntington's Disease” (PTC Therapeutics, Inc., priority 2017, dated 2022).

What follows are molecules tested on Endogenous Huntingtin Protein (HTT) (assay: Endogenous Huntingtin Protein Assay (ELISA-based MSD electrochemiluminescence)). Conditions: Table 1.
Type: cell-based
In short: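 MSD electrochemiluminescence sandwich ELISA for endogenous HTT: sample lysates captured overnight at 4 °C on MW1 (expanded polyglutamine) or MAB2166 antibody. Detection used rabbit monoclonal #5656S, then goat anti-rabbit SULFO-TAG antibody, each 1 h at room temperature.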
In the case of `CCN1CC=C(c2cn3c(=O)cc(-c4ccc5c(cnn5C)c4)nc3cn2)CC1` [compound 507, 7-(1-ethyl-1,2,3,6-tetrahydropyridin-4-yl)-2-(1-methyl-1H-indazol-5-yl)-4H-pyrazino[1,2-a]pyrimidin-4-one], the IC50 is reported as 3 to 33 µM. With `Cc1cn2cc(-c3cc(=O)n4cc(C5CCNCC5)ccc4n3)cc(Cl)c2n1` [compound 516, 2-(8-chloro-2-methylimidazo[1,2-a]pyridin-6-yl)-7-(piperidin-4-yl)-4H-pyrido[1,2-a]pyrimidin-4-one] the IC50 was < 0.1 µM. `Cc1cn2nc(-c3cc(=O)n4cc(C5CCN(CCO)CC5)ccc4n3)cc2c(C)n1` [compound 530, 2-(4,6-dimethylpyrazolo[1,5-a]pyrazin-2-yl)-7-[1-(2-hydroxyethyl)piperidin-4-yl]-4H-pyrido[1,2-a]pyrimidin-4-one] showed an IC50 of 3 to 33 µM. `Cc1cn2nc(-c3cc(=O)n4cc(N5CCN(CCO)CC5)ccc4n3)cc2c(C)n1` [compound 531, 2-(4,6-dimethylpyrazolo[1,5-a]pyrazin-2-yl)-7-[4-(2-hydroxyethyl)piperazin-1-yl]-4H-] showed an IC50 of 3 to 33 µM. Molecule `Cc1cn2nc(-c3cc(=O)n4cc(N5CCN(CCO)[C@H](C)C5)ccc4n3)cc2c(C)n1` [compound 532, 2-(4,6-dimethylpyrazolo[1,5-a]pyrazin-2-yl)-7-[(3R)-4-(2-hydroxyethyl)-3-methylpiperazin-1-yl]-4H-pyrido[1,2-a]pyrimidin-4-one] has an IC50 of 1 to 3 µM. For `Cc1cn2cc(-c3cc(=O)n4cc(N5CCN(CCOCCO)[C@@H](C)C5)ccc4n3)cc(F)c2n1` [compound 540, 2-(8-fluoro-2-methylimidazo[1,2-a]pyridin-6-yl)-7-{(3S)-4-[2-(2-hydroxyethoxy)ethyl]-3-methylpiperazin-1-yl}-4H-pyrido[1,2-a]pyrimidin-4-one], the IC50 was 1 to 3 µM. Work on `C[C@@H]1CN(c2ccc3nc(-c4ccc5c(cnn5C)c4)cc(=O)n3c2)CCN1` [compound 545, 2-(1-methyl-1H-indazol-5-yl)-7-[(3R)-3-methylpiperazin-1-yl]-4H-pyrido[1,2-a]pyrimidin-4-one] yielded an IC50 of 3 to 33 µM. With `CCc1nc(C)cn2nc(-c3cc(=O)n4cc(N5CCNCC5)ccc4n3)cc12` [compound 546, 2-(4-ethyl-6-methylpyrazolo[1,5-a]pyrazin-2-yl)-7-(piperazin-1-yl)-4H-pyrido[1,2-a]pyrimidin-4-one] the IC50 was 1 to 3 µM. `CCc1nc(C)cn2nc(-c3cc(=O)n4cc(N5CCN(CCO)CC5)ccc4n3)cc12` [compound 549, 2-(4-ethyl-6-methylpyrazolo[1,5-a]pyrazin-2-yl)-7-[4-(2-hydroxyethyl)piperazin-1-yl]-4H-pyrido[1,2-a]pyrimidin-4-one] was tested, and the IC50 was 3 to 33 µM. Molecule `CCc1nc(C)cn2nc(-c3cc(=O)n4cc(N5CCC(N(C)C)CC5)ccc4n3)cc12` [compound 550, 7-[4-(dimethylamino)piperidin-1-yl]-2-(4-ethyl-6-methylpyrazolo[1,5-a]pyrazin-2-yl)-4H-pyrido[1,2-a]pyrimidin-4-one] has an IC50 of 3 to 33 µM. Molecule `C[C@@H]1CN(c2ccc3nc(-c4ccc5c(cnn5C)c4)cc(=O)n3c2)C[C@H](C)N1` [compound 552, 7-[(3R,5S)-3,5-dimethylpiperazin-1-yl]-2-(1-methyl-1H-indazol-5-yl)-4H-pyrido[1,2-a]pyrimidin-4-one] has an IC50 of 3 to 33 µM. Work on `C[C@H]1CN(c2ccc3nc(-c4ccc5c(cnn5C)c4)cc(=O)n3c2)CCN1` [compound 553, 2-(1-methyl-1H-indazol-5-yl)-7-[(3S)-3-methylpiperazin-1-yl]-4H-pyrido[1,2-a]pyrimidin-4-one] yielded an IC50 of 3 to 33 µM. Molecule `Cc1cn2ccc(-c3cc(=O)n4cc(N5CCNCC5)ccc4n3)cc2n1` [compound 555, 2-(2-methylimidazo[1,2-a]pyridin-7-yl)-7-(piperazin-1-yl)-4H-pyrido[1,2-a]pyrimidin-4-one] has an IC50 of 3 to 33 µM. For `Cc1cn2ccc(-c3cc(=O)n4cc(C5CCNCC5)ccc4n3)cc2n1` [compound 556, 2-(2-methylimidazo[1,2-a]pyridin-7-yl)-7-(piperidin-4-yl)-4H-pyrido[1,2-a]pyrimidin-4-one], the IC50 was 3 to 33 µM. For `Cc1cn2ccc(-c3cc(=O)n4cc(N5CCN(C)CC5)ccc4n3)cc2n1` [compound 557, 2-(2-methylimidazo[1,2-a]pyridin-7-yl)-7-(4-methylpiperazin-1-yl)-4H-pyrido[1,2-a]pyrimidin-4-one], the IC50 was 3 to 33 µM. Molecule `Cn1cc2cc(-c3cc(=O)n4cc(C5CCNCC5)ncc4n3)ccc2n1` [compound 566, 2-(2-methyl-2H-indazol-5-yl)-7-(piperidin-4-yl)-4H-pyrazino[1,2-a]pyrimidin-4-one] has an IC50 of 0.1 to 0.5 µM. Molecule `CN1CCC(c2cn3c(=O)cc(-c4ccc5nn(C)cc5c4)nc3cn2)CC1` [compound 567, 2-(2-methyl-2H-indazol-5-yl)-7-(1-methylpiperidin-4-yl)-4H-pyrazino[1,2-a]pyrimidin-4-one] has an IC50 of 3 to 33 µM. With `CCN1CCC(c2cn3c(=O)cc(-c4ccc5nn(C)cc5c4)nc3cn2)CC1` [compound 568, 7-(1-ethylpiperidin-4-yl)-2-(2-methyl-2H-indazol-5-yl)-4H-pyrazino[1,2-a]pyrimidin-4-one] the IC50 was 1 to 3 µM. With `Cn1cc2cc(-c3cc(=O)n4cc(C5CCN(CCO)CC5)ncc4n3)ccc2n1` [compound 569, 7-[1-(2-hydroxyethyl)piperidin-4-yl]-2-(2-methyl-2H-indazol-5-yl)-4H-pyrazino[1,2-a]pyrimidin-4-one] the IC50 was 1 to 3 µM. For `CN1CCC(c2ccc3nc(-c4ccc5nn(C)cc5c4)cc(=O)n3c2)CC1` [compound 578, 2-(2-methyl-2H-indazol-5-yl)-7-(1-methylpiperidin-4-yl)-4H-pyrido[1,2-a]pyrimidin-4-one], the IC50 was 3 to 33 µM. `Cc1cn2cc(-c3cc(=O)n4cc(C5CCN(C)CC5)ncc4n3)ccc2n1` [compound 579, 2-(2-methylimidazo[1,2-a]pyridin-6-yl)-7-(1-methylpiperidin-4-yl)-4H-pyrazino[1,2-a]pyrimidin-4-one] gave an IC50 of 3 to 33 µM. With `CCN1CCC(c2cn3c(=O)cc(-c4ccc5nc(C)cn5c4)nc3cn2)CC1` [compound 580, 7-(1-ethylpiperidin-4-yl)-2-(2-methylimidazo[1,2-a]pyridin-6-yl)-4H-pyrazino[1,2-a]pyrimidin-4-one] the IC50 was 3 to 33 µM. With `Cc1cn2cc(-c3cc(=O)n4cc(C5CCN(CCO)CC5)ncc4n3)ccc2n1` [compound 581, 7-[1-(2-hydroxyethyl)piperidin-4-yl]-2-(2-methylimidazo[1,2-a]pyridin-6-yl)-4H-pyrazino[1,2-a]pyrimidin-4-one] the IC50 was 1 to 3 µM. Molecule `Cc1cn2nc(-c3cc(=O)n4cc(N5CCC(N(C)CCO)CC5)cc(C)c4n3)cc2c(C)n1` [compound 582, 2-(4,6-dimethylpyrazolo[1,5-a]pyrazin-2-yl)-7-{4-[(2-hydroxyethyl)(methyl)amino]piperidin-1-yl}-9-methyl-4H-pyrido[1,2-a]pyrimidin-4-one] has an IC50 of 3 to 33 µM. In the case of `Cc1cn2nc(-c3cc(=O)n4cc(N5CCC(C)(N)CC5)ccc4n3)cc2c(C)n1` [compound 584, 7-(4-amino-4-methylpiperidin-1-yl)-2-(4,6-dimethylpyrazolo[1,5-a]pyrazin-2-yl)-4H-pyrido[1,2-a]pyrimidin-4-one], the IC50 is reported as 3 to 33 µM. For `Cc1cn2cc(-c3cc(=O)n4cc(C5CCNCC5)ncc4n3)ccc2n1` [compound 585, 2-(2-methylimidazo[1,2-a]pyridin-6-yl)-7-(piperidin-4-yl)-4H-pyrazino[1,2-a]pyrimidin-4-one], the IC50 was 0.5 to 1 µM.
